In patent US9434725B2, “5-azaindazole compounds and methods of use” (priority 2012, dated 2016):
Read-outs that look alike come from different tables or passages of the source.

What was measured:
Type in all cases: biochemical
PIM1 = PIM1 (Homo sapiens (Human), UniProt P11309); assay: biochemical
Procedure: (§1) A fluorescent-labeled Pim-specific peptide substrate, was custom synthesized by American Peptide Company (Sunnyvale, Calif.). Reaction Buffer contained 10 mM HEPES, pH 7.2, 10 mM MgCl2, 0.01% Tween 20, 2 mM DTT. Termination Buffer contained 190 mM HEPES, pH 7.2, 0.015% Brij-35, 0.2% Coating Reagent 3 (Caliper Life Sciences, Hopkinton, Mass.), 20 mM EDTA. Separation Buffer contained 100 mM HEPES, pH 7.2, 0.015% Brij-35, 0.1% Coating Reagent 3, 1:200 Coating Reagent 8 (Caliper Life Sciences, Hopkinton, Mass.), 10 mM EDTA and 5% DMSO.
(§2) PIM reactions were carried out in a final volume of 10 μL per well in a 384-well plate. […] After 90 minutes of incubation at room temperature, the phosphorylation reaction was stopped by the addition of 10 μL Termination Buffer. The product and substrate in each independent reaction were separated on a 12-sipper microfluidic chip (Caliper Life Sciences, Hopkinton, Mass.) run on a Caliper LC3000® (Caliper Life Sciences, Hopkinton, Mass.). The separation of product and substrate was optimized by choosing voltages and pressure using Caliper's Optimizer software (Hopkinton, Mass.). […] Substrate conversion was calculated from the electropherogram using HTS Well Analyzer software (Caliper Life Sciences, Hopkinton, Mass.). Ki values for the test compound were calculated.

PIM2 = PIM2 (Homo sapiens (Human), UniProt Q9P1W9); assay: Pim kinase binding activity, Caliper LC3000 microfluidic peptide phosphorylation assay, PIM2; settings: 10 μM ATP, 90 min, room temperature; read-out: PIM2 LC3K (KI)
Procedure: as §1, §2

PIM3 = PIM3 (Homo sapiens (Human), UniProt Q86V86); assay: Pim kinase binding activity, Caliper LC3000 microfluidic peptide phosphorylation assay, PIM3; settings: 10 μM ATP, 90 min, room temperature; read-out: PIM3 LC3K (KI)
Procedure: as §1, §2

[1] = 10 μM ATP, 90 min, room temperature, read-out: PIM1 LC3K (KI)

Sequence of PIM2 (Q9P1W9 whole entry): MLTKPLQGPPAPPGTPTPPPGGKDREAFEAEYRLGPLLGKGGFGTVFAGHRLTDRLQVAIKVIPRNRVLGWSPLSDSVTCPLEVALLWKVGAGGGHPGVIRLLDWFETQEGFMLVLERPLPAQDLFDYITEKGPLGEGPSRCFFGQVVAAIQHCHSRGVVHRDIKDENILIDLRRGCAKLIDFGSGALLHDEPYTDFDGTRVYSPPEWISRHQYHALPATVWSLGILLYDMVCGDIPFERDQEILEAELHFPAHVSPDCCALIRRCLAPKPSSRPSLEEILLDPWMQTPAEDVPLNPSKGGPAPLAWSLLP
Sequence of PIM1 (P11309 whole entry): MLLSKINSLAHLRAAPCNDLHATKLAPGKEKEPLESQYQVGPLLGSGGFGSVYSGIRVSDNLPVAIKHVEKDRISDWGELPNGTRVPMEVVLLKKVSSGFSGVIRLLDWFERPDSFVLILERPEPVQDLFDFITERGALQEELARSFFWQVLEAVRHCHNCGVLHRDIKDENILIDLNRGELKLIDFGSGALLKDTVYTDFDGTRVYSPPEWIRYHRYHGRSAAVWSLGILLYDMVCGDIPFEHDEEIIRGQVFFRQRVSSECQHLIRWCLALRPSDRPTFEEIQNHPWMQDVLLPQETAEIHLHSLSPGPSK

For `Cc1cncc(-c2cc3c(cn2)cnn3-c2cccc(N3C[C@@H](N)CCC3=O)n2)n1` [Compound 202, (5S)-5-amino-1-[6-[6-(6-methylpyrazin-2-yl)pyrazolo[4,3-c]pyridin-1-yl]-2-pyridyl]piperidin-2-one], which Ki (PIM1; [1]) is on record?
The Ki was 56.4 nM.

What about the Ki (PIM2) of the same compound?
The Ki was 421 nM.

What about the Ki (PIM3) of the same compound?
Its Ki is 36.4 nM.

Which results are given for `CCn1cc(-c2cc3c(cn2)cnn3-c2cccc(NC3CCCCNC3)n2)cn1` (stereo not shown) [Compound 143, N-(6-(6-(1-ethyl-1H-pyrazol-4-yl)-1H-pyrazolo[4,3-c]pyridin-1-yl)pyridin-2-yl)azepan-3-amine]?
Ki (PIM1; [1]): 2.46 nM; Ki (PIM2): 31.1 nM; Ki (PIM3): 1.62 nM

`CCn1cc(-c2cc3c(cn2)cnn3-c2cccc(N3CC[C@@H](N)C3)n2)cn1` [Compound 136, (R)-1-(6-(6-(1-ethyl-1H-pyrazol-4-yl)-1H-pyrazolo[4,3-c]pyridin-1-yl)pyridin-2-yl)pyrrolidin-3-amine] was tested. Which Ki (PIM1; [1]) did it give?
Its Ki is 2.05 nM.

What about the Ki (PIM2) of the same compound?
Its Ki is 17.3 nM.

And the Ki (PIM3)?
Its Ki is 0.615 nM.

What does the source list for `FC(F)n1cc(-c2cc3c(cn2)cnn3-c2cccc(N3CCCNCC3)n2)cn1` [Compound 173, 1-(6-(1,4-Diazepan-1-yl)pyridin-2-yl)-6-(1-(difluoromethyl)-1H-pyrazol-4-yl)-1H-pyrazolo[4,3-c]pyridine]?
Ki (PIM1; [1]): 1.21 nM; Ki (PIM2): 9.54 nM; Ki (PIM3): 1.09 nM

Which results are given for `CCn1cc(-c2cc3c(cn2)cnn3-c2cccc(N3CCNC(C)(C)C3)n2)cn1` [Compound 131, 1-(6-(3,3-dimethylpiperazin-1-yl)pyridin-2-yl)-6-(1-ethyl-1H-pyrazol-4-yl)-1H-pyrazolo[4,3-c]pyridine]?
Ki (PIM1; [1]): 0.58 nM; Ki (PIM2): 15.9 nM; Ki (PIM3): 0.385 nM

What does the source list for `CCn1cc(-c2cc3c(cn2)cnn3-c2cccc(N3CC[C@H](N)C3)n2)cn1` [Compound 135, (S)-1-(6-(6-(1-ethyl-1H-pyrazol-4-yl)-1H-pyrazolo[4,3-c]pyridin-1-yl)pyridin-2-yl)pyrrolidin-3-amine]?
Ki (PIM1; [1]): 2.12 nM; Ki (PIM2): 11.1 nM; Ki (PIM3): 0.84 nM

Which results are given for `c1ccc(COc2cncc(-c3cc4c(cn3)cnn4-c3cccc(N4CCNCC4)n3)n2)cc1` [Compound 276, 6-(6-(benzyloxy)pyrazin-2-yl)-1-(6-(piperazin-1-yl)pyridin-2-yl)-1H-pyrazolo[4,3-c]pyridine]?
Ki (PIM1; [1]): 0.494 nM; Ki (PIM2): 34.8 nM; Ki (PIM3): 0.337 nM

For `c1cc(N2CCCNCC2)nc(-n2ncc3cnc(-c4cncc(C5COC5)c4)cc32)c1` [Compound 118, 1-(6-(1,4-diazepan-1-yl)pyridin-2-yl)-6-(5-(oxetan-3-yl)pyridin-3-yl)-1H-pyrazolo[4,3-c]pyridine], which Ki (PIM1; [1]) is on record?
Its Ki is 0.08 nM.

What about the Ki (PIM2) of the same compound?
The Ki was 9.04 nM.

What about the Ki (PIM3) of the same compound?
Its Ki is 0.117 nM.

Which results are given for `Cc1cc(-c2cc3c(cn2)cnn3-c2cccc(N3CCNCC3)n2)sn1` [Compound 119, 3-methyl-5-[1-(6-piperazin-1-yl-2-pyridyl)pyrazolo[4,3-c]pyridin-6-yl]isothiazole]?
Ki (PIM1; [1]): 0.426 nM; Ki (PIM2): 8.49 nM; Ki (PIM3): 0.307 nM

For `FC(F)(F)Cn1cc(-c2cc3c(cn2)cnn3-c2cccc(N3CC4(CNC4)C3)n2)cn1` [Compound 267, 1-(6-(2,6-Diazaspiro[3.3]heptan-2-yl)pyridin-2-yl)-6-(1-(2,2,2-trifluoroethyl)-1H-pyrazol-4-yl)-1H-pyrazolo[4,3-c]pyridine], which Ki (PIM1; [1]) is on record?
Its Ki is 3.81 nM.

What about the Ki (PIM2) of the same compound?
The Ki was 30.3 nM.

And the Ki (PIM3)?
Its Ki is 6.01 nM.

For `Cn1cc(-c2cc3c(cn2)cnn3-c2cccc(N3CC4(CCCCN4)C3)n2)cn1` [Compound 266, 1-(6-(2,5-Diazaspiro[3.5]nonan-2-yl)pyridin-2-yl)-6-(1-methyl-1H-pyrazol-4-yl)-1H-pyrazolo[4,3-c]pyridine], which Ki (PIM1; [1]) is on record?
Its Ki is 1.1 nM.

And the Ki (PIM2)?
Its Ki is 29.3 nM.

What about the Ki (PIM3) of the same compound?
The Ki was 1.21 nM.

`N#Cc1cncc(-c2cc3c(cn2)cnn3-c2cccc(N3CCNCC3)n2)n1` [Compound 177, 6-[1-(6-piperazin-1-yl-2-pyridyl)pyrazolo[4,3-c]pyridin-6-yl]pyrazine-2-carbonitrile] was tested. Which Ki (PIM1; [1]) did it give?
Its Ki is 1.04 nM.

What about the Ki (PIM2) of the same compound?
The Ki was 16.1 nM.

And the Ki (PIM3)?
The Ki was 0.363 nM.

Which results are given for `Cc1cncc(-c2cc3c(cn2)cnn3-c2cccc(OC3CCCC(N)C3)n2)n1` (stereo not shown) [Compound 310, 3-(6-(6-(6-methylpyrazin-2-yl)-1H-pyrazolo[4,3-c]pyridin-1-yl)pyridin-2-yloxy)cyclohexanamine]?
Ki (PIM1; [1]): 1.64 nM; Ki (PIM3): 1.63 nM

Which Ki (PIM2) does the source give for `Cc1cncc(-c2cc3c(cn2)cnn3-c2cccc(N3CCCC(N)C3C)n2)n1` (stereo not shown) [Compound 195, 2-methyl-1-[6-[6-(6-methylpyrazin-2-yl)pyrazolo[4,3-c]pyridin-1-yl]-2-pyridyl]piperidin-3-amine] here?
Its Ki is 1.03 nM.

And the Ki (PIM3)?
Its Ki is 0.057 nM.

Which results are given for `FC(F)Cn1cc(-c2cc3c(cn2)cnn3-c2cccc(N3CCCNCC3)n2)cn1` [Compound 162, 1-(6-(1,4-Diazepan-1-yl)pyridin-2-yl)-6-(1-(2,2-difluoroethyl)-1H-pyrazol-4-yl)-1H-pyrazolo[4,3-c]pyridine]?
Ki (PIM2): 2.26 nM; Ki (PIM3): 0.814 nM

For `CCn1cc(-c2cc3c(cn2)cnn3-c2cccc(N3CC[C@@H](O)C3)n2)cn1` [Compound 128, (R)-1-(6-(6-(1-ethyl-1H-pyrazol-4-yl)-1H-pyrazolo[4,3-c]pyridin-1-yl)pyridin-2-yl)pyrrolidin-3-ol], which Ki (PIM1; [1]) is on record?
Its Ki is 7.22 nM.

And the Ki (PIM3)?
The Ki was 4.39 nM.

Which Ki (PIM2) does the source give for `Cc1cncc(-c2cc3c(cn2)cnn3-c2ccc(C(F)(F)F)c(N3CCC[C@H](N)C3)n2)n1` [Compound 220, (S)-1-(6-(6-(6-methylpyrazin-2-yl)-1H-pyrazolo[4,3-c]pyridin-1-yl)-3-(trifluoromethyl)pyridin-2-yl)piperidin-3-amine] here?
Its Ki is 0.115 nM.

What about the Ki (PIM3) of the same compound?
Its Ki is 0.009 nM.

What does the source list for `Cc1cncc(-c2cc3c(cn2)cnn3-c2cccc(N3CCCC(N)C3C)n2)n1` (single isomer, unassigned) [Compound 204, 2-methyl-1-[6-[6-(6-methylpyrazin-2-yl)pyrazolo[4,3-c]pyridin-1-yl]-2-pyridyl]piperidin-3-amine]?
Ki (PIM2): 0.477 nM; Ki (PIM3): 0.025 nM

How did the Ki (PIM2) turn out when `Cc1cncc(-c2cc3c(cn2)cnn3-c2ccc(F)c(N3CCC[C@H](N)C3)n2)n1` [Compound 215, (S)-1-(3-fluoro-6-(6-(6-methylpyrazin-2-yl)-1H-pyrazolo[4,3-c]pyridin-1-yl)pyridin-2-yl)piperidin-3-amine] was run?
Its Ki is 0.314 nM.

What about the Ki (PIM3) of the same compound?
Its Ki is 0.011 nM.

`Cc1cncc(-c2cc3c(cn2)cnn3-c2ccc(=O)n([C@@H]3CCCNC3)n2)n1` [Compound 290, (R)-6-(6-(6-methylpyrazin-2-yl)-1H-pyrazolo[4,3-c]pyridin-1-yl)-2-(piperidin-3-yl)pyridazin-3(2H)-one] was tested. Which Ki (PIM1) did it give?
Its Ki is 16.3 nM.

What about the Ki (PIM2) of the same compound?
The Ki was 43.2 nM.

`Cn1cc(-c2cc3c(cn2)cnn3-c2cccc(N3CCNCC3)n2)cn1` [Compound 102, 6-(1-methyl-1H-pyrazol-4-yl)-1-(6-(piperazin-1-yl)pyridin-2-yl)-1H-pyrazolo[4,3-c]pyridine] was tested. Which Ki (PIM1; [1]) did it give?
The Ki was 0.623 nM.

What about the Ki (PIM2) of the same compound?
Its Ki is 12.1 nM.

How did the Ki (PIM2) turn out when `Cc1cncc(-c2cc3c(cn2)cnn3-c2cccc(C(=O)N3CCC[C@@H](N)C3)n2)n1` [Compound 303, (R)-(3-aminopiperidin-1-yl)(6-(6-(6-methylpyrazin-2-yl)-1H-pyrazolo[4,3-c]pyridin-1-yl)pyridin-2-yl)methanone] was run?
The Ki was 193 nM.

What about the Ki (PIM3) of the same compound?
The Ki was 15.6 nM.

For `Cc1cncc(-c2cc3c(cn2)cnn3-c2cccc(C3CNCCC3(F)F)n2)n1` (stereo not shown) [Compound 259, 1-[6-(4,4-difluoro-3-piperidyl)-2-pyridyl]-6-(6-methylpyrazin-2-yl)pyrazolo[4,3-c]pyridine], which Ki (PIM1; [1]) is on record?
The Ki was 0.053 nM.

What about the Ki (PIM2) of the same compound?
Its Ki is 0.242 nM.

What does the source list for `CCc1cncc(-c2cc3c(cn2)cnn3-c2cccc(N3CCNC[C@H](O)C3)n2)c1` (single isomer, unassigned) [Compound 121]?
Ki (PIM2): 10.5 nM; Ki (PIM3): 0.301 nM

How did the Ki (PIM1; [1]) turn out when `CCn1cc(-c2cc3c(cn2)cnn3-c2cccc(N3CC[C@H](O)C3)n2)cn1` [Compound 127, (S)-1-(6-(6-(1-ethyl-1H-pyrazol-4-yl)-1H-pyrazolo[4,3-c]pyridin-1-yl)pyridin-2-yl)pyrrolidin-3-ol] was run?
Its Ki is 3.04 nM.

And the Ki (PIM3)?
The Ki was 1.31 nM.

With `CC(C)c1cncc(-c2cc3c(cn2)cnn3-c2cccc(N3CCC[C@@H](N)C3)n2)c1` [Compound 107, (R)-1-(6-(6-(5-isopropylpyridin-3-yl)-1H-pyrazolo[4,3-c]pyridin-1-yl)pyridin-2-yl)piperidin-3-amine] as the compound, how does the Ki (PIM2) read?
The Ki was 9.58 nM.

What about the Ki (PIM3) of the same compound?
Its Ki is 0.203 nM.

How did the Ki (PIM2) turn out when `Cc1cncc(-c2cc3c(cn2)cnn3-c2cccc(N3CCNC[C@H]3C)n2)n1` [Compound 191, 1-[6-[(2R)-2-methylpiperazin-1-yl]-2-pyridyl]-6-(6-methylpyrazin-2-yl)pyrazolo[4,3-c]pyridine] was run?
Its Ki is 0.659 nM.

And the Ki (PIM3)?
The Ki was 0.033 nM.

For `Cc1cncc(-c2cc3c(cn2)cnn3-c2cccc(C3CCNCC3)n2)n1` [Compound 166, 6-(6-methylpyrazin-2-yl)-1-[6-(4-piperidyl)-2-pyridyl]pyrazolo[4,3-c]pyridine], which Ki (PIM2) is on record?
The Ki was 4.62 nM.

What about the Ki (PIM3) of the same compound?
The Ki was 0.447 nM.

`Cn1cc(-c2cc3c(cn2)cnn3-c2cccc(N3CC4(CNC4)C3)n2)cn1` [Compound 268, 1-(6-(2,6-Diazaspiro[3.3]heptan-2-yl)pyridin-2-yl)-6-(1-methyl-1H-pyrazol-4-yl)-1H-pyrazolo[4,3-c]pyridine] was tested. Which Ki (PIM1; [1]) did it give?
Its Ki is 11.5 nM.

And the Ki (PIM2)?
Its Ki is 149 nM.
